# Measurements published in patent publication EP0470323A2, “New salts of the nicotinic acid with aminobenzylic compounds and their pharmaceutical use” (BROMLEY LIMITED, priority 1990, dated 1992).
# How the values were obtained:
# [1] = system: Thyphirium salmonella strains (TA 98, TA 100, TA 1535, and TA 1538); format: cell-based
# Excerpt: The compound according to the Example 1 has been tested, in order to check and see its mutagenic effects.
# [2] = system: Schiosaccharomyces Pombe; assay: Mutagenic action of urines of intragastrically treated rats on yeast; format: cell-based; settings: urines of rats treated intragastrically with two doses, with metabolic activation, beta-glucoronidase absent
# [3] = system: hypertrigliceridaemia from olive oil in the rats; assay: Hypertriglyceridaemia from olive oil in the rat (serum lactescence); format: in vivo
# Procedure: The method described by Zucker I.H. (Sci. Anal. Lab. 24, 114, 1972) has been followed.
# Male rats have been used, whose body weight was 150-200 g. The animals were without eating with water "ad libitum" and all this beginning 24 hours before the experiment. The hyperlipaemia was induced by the administration of olive oil by mouth; its composition as to the fat acids was as follows: palmitic acid 10% palmitoleic acid 1%, stearic acid 3%, […] and linoleic acid 7% (all percentages are by weight). The quantity of olive oil administered, by means of a gastric probe, was 10 ml/kg. The treatments were made by finely pounding with a china mortar and by suspending in the olive oil the examined compounds. […] The positive control animals received only olive oil; moreover, there was also a group of negative control animals who received plain water in quantities of 10 ml/kg. Every three hours a group of rats (10) was killed in a light ethereal anaesthesia, in order to be able to appreciate the percentage of triglycerides in the blood. The animals were bled by cutting them the carotids and the blood was collected in plastic test-tubes, capacity 10 ml each, and was centrifuged for ten minutes at 3500 rpm. The evaluated parameter was the lactescence of the serum, which is directly proportional to the contents of kilomicrons and therefore of triglycerides (Zucker, see above the mention). The serum has been diluted 1:5 in a physiologic solution and was read at the spectrophotometer at […] against white (physiologic solution). From the individual optical Density (D.O.) data one could calculate for each group the average of the standard error. The statistical analysis was performed by means of the t of Dunnett.
# [4] = system: Hypercholesterolaemia caused by Trit WR1339 in the mouses; assay: Hypercholesterolaemia of the mouse caused by Triton WR 1339; format: in vivo; settings: for Tot.Cholesterol M ± E.S. / Tot.Lipids M ± E.S.: 20 hours after Triton WR 1339 i.p.; for Tot.Cholesterol % vs contr. / Tot.Lipids % vs contr.: reduction
# Procedure: The method described by Garattini S. (Arzneim,Forsch 9, 206; 1959) with some modifications has been followed.
# The mouses used have been males of 22 to 28 grams body weight, on an empty stomach but with water "ad libitum" since 12 hours. The hyperlipidaemia was induced by means of an intraperitoneum administration of […] of Triton WR 1339, with dosage 300 mg/kg in a physiological solution. The subject products were administered at the same time in clear plain water, always in a volume of […] by means of a gastric probe. The animals were sacrified after 20 hours, by cutting them the carotids. The blood was collected in some plastic test-tubes, and was centrifuged at 3500 rpm for ten minutes. Thereafter the total cholesterol (Sornay R and colleagues, Arzeneim Forsch, 26,885 1976) and the total lipids (Chonhelmer R and colleagues, Biological Chemistry 106, 745, 1934) were determined.
# [5] = system: red cells in the rat; assay: Red cell deformability / filtration, Schmidt-Schönbein method; format: in vivo; settings: dose 3 x 0,5 mM/kg/os, listed as Compound as Ex. 1
# Excerpt: steresis (Teiltel P.: Nouv. Rev. Franç. Hématol. 7, 195, 1967). Any alteration, almost undoubtely at the level of the red cell's membrane, cause some damaging variations of the red cell's elasticity thus making more difficult the passing through the capillary vessels having more reduced diameter, and therefore increasing the flow resistance in the peripheral vessels systems. In order to determine the effect caused by the compound according to the Example 1, on these features of the red cell, the method described by Schmidt, Schonbein and colleagues (Blut 26, 369, 1973) has been used.
# In the circulatory flow, the above mentioned capillary vessels being excluded, the blood cells do normally circulate being attached between each other because of their adhesiveness. In order to study this adhesion force, the above mentioned Teitel method has been used. Male rats of 150 g body weight approximately have been employed, and they have been treated for three consecutive days with 0,5 mM/kg/os of the compound according to the Example 1, or otherwise Buflomedil, or even Pentosiphillin used as comparison substance. After the last treatment the animals, without eating from 18 hours, have been killed in a light ethereal anaesthesy and the blood was collected over an 0,2 molar EDTA (9 and 1 volumes respectively). The red cells filtering possibility, measured with the Teitel method, wherein the quantity of red cells passing, in high haematocritical conditions, through a paper filter with holes of 20-40 µm in a previously determined time, has been ascertained as follows: the blood was centrifuged for ten minutes at 2000 rpm in order to obtain the massing of the red cells, two ml of the blood collected as above were put into an upside down turned cone made with filtering paper, being previously wetted with a physiological solution. The volume passing through the filter in 2 - 4 - 8 and 16 minutes is then measured. […]
smiles,measurement,setting,value
"COc1cc(OC)c(C(=O)CCCN2CCCC2)c(OC)c1 [Example 1, 4-(1 pyrrholydinyl)-1-(2,4,6 trimethoxypheniyl)-1-nicotinized butanone]",mutagenic activity,[1],did not show any mutagenic activity
same,mutagenic action,[2],any mutagenic action did not result
same,Serum opt.density at the indicated times (M ± E.S.),"[3]; dose 1 mM/kg/os, 3 h","247 ± 15,3"
same,Serum opt.density at the indicated times (M ± E.S.),"[3]; dose 1 mM/kg/os, 6 h","1121 ± 51,6"
same,Serum opt.density at the indicated times (M ± E.S.),"[3]; dose 1 mM/kg/os, 9 h","987 ± 36,7"
same,Serum opt.density at the indicated times (M ± E.S.),"[3]; dose 1 mM/kg/os, 12 h","724 ± 28,4"
same,Serum opt.density at the indicated times (M ± E.S.),"[3]; dose 1 mM/kg/os, 15 h","458 ± 21,3"
same,Serum opt.density at the indicated times (M ± E.S.),"[3]; dose 1 mM/kg/os, 18 h","229 ± 22,6"
same,Serum opt.density at the indicated times (M ± E.S.),"[3]; dose 2 mM/kg/os, 3 h","271 ± 15,9"
same,Serum opt.density at the indicated times (M ± E.S.),"[3]; dose 2 mM/kg/os, 6 h","856 ± 44,2"
same,Serum opt.density at the indicated times (M ± E.S.),"[3]; dose 2 mM/kg/os, 9 h","624 ± 27,4"
same,Serum opt.density at the indicated times (M ± E.S.),"[3]; dose 2 mM/kg/os, 12 h","451 ± 26,2"
same,Serum opt.density at the indicated times (M ± E.S.),"[3]; dose 2 mM/kg/os, 15 h","294 ± 26,2"
same,Serum opt.density at the indicated times (M ± E.S.),"[3]; dose 2 mM/kg/os, 18 h","212 ± 28,3"
same,Serum opt.density at the indicated times (M ± E.S.),"[3]; dose 4 mM/kg/os, 3 h","260 ± 17,1"
same,Serum opt.density at the indicated times (M ± E.S.),"[3]; dose 4 mM/kg/os, 6 h","720 ± 43,8"
same,Serum opt.density at the indicated times (M ± E.S.),"[3]; dose 4 mM/kg/os, 9 h","612 ± 21,2"
same,Serum opt.density at the indicated times (M ± E.S.),"[3]; dose 4 mM/kg/os, 12 h","400 ± 28,3"
same,Serum opt.density at the indicated times (M ± E.S.),"[3]; dose 4 mM/kg/os, 15 h","226 ± 25,6"
same,Serum opt.density at the indicated times (M ± E.S.),"[3]; dose 4 mM/kg/os, 18 h","184 ± 16,2"
same,reduction in both parameters (total cholesterol and total lipids),[4]; dosage of 2 mM/kg weight,43%
same,reduction in both parameters (total cholesterol and total lipids),[4]; dosage of 5 mM/kg weight,~60%
same,Tot.Cholesterol M ± E.S.,[4]; dose 1 mM/kg per os,221 ± 18 mg/100 ml
same,Tot.Lipids M ± E.S.,[4]; dose 1 mM/kg per os,1721 ± 164 mg/100 ml
same,Tot.Cholesterol % vs contr.,[4]; dose 1 mM/kg per os,"38,3%"
same,Tot.Lipids % vs contr.,[4]; dose 1 mM/kg per os,"29,3%"
same,Tot.Cholesterol M ± E.S.,[4]; dose 2 mM/kg per os,191 ± 15 mg/100 ml
same,Tot.Lipids M ± E.S.,[4]; dose 2 mM/kg per os,1315 ± 115 mg/100 ml
same,Tot.Cholesterol % vs contr.,[4]; dose 2 mM/kg per os,"46,6%"
same,Tot.Lipids % vs contr.,[4]; dose 2 mM/kg per os,"46,0%"
same,Tot.Cholesterol M ± E.S.,[4]; dose 4 mM/kg per os,133 ± 12 mg/100 ml
same,Tot.Lipids M ± E.S.,[4]; dose 4 mM/kg per os,1008 ± 117 mg/100 ml
same,Tot.Cholesterol % vs contr.,[4]; dose 4 mM/kg per os,"62,8%"
same,Tot.Lipids % vs contr.,[4]; dose 4 mM/kg per os,"58,6%"
same,Schmidt-Schönbein method Δ % vs contr.,[5],"46,2%"
